Assay results taken from the NIST ThermoML archive (doi:10.1021/je049778g).
Numbers after ± are expanded uncertainties.

Conditions: Liquid; for mass density: 298.15 K, 101.33 kPa

mass density [kg/m3] | Normal boiling temperature [°C] | Structure (SMILES)
799.5 ± 0.2 | 97.04 ± 0.03 | CCCO [propan-1-ol]
786.5 ± 0.3 | 64.52 ± 0.03 | CO [methanol]
785.1 ± 0.3 | 78.31 ± 0.03 | CCO [ethanol]
780.8 ± 0.3 | 82.26 ± 0.03 | CC(C)O [propan-2-ol]
